Test results from PubChem BioAssay (NCI).
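These data come from cells grown in 96-well plates and exposed to compound for 48 hours at five concentrations. GI50 marks 50% less growth. TGI: total growth inhibition.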

Key:
Assay in all cases: growth of human tumour cells (NCI), 48 h
[1] = test system: 786-0 renal
[2] = test system: A498 renal
[3] = test system: A549 NSCLC
[4] = test system: ACHN renal
[5] = test system: BT-549 breast
[6] = test system: CAKI-1 renal
[7] = test system: CCRF-CEM leukemia
[8] = test system: COLO 205 colon
[9] = test system: DU-145 prostate
[10] = test system: HCC-2998 colon
[11] = test system: HCT-116 colon
[12] = test system: HCT-15 colon
[13] = test system: HL-60(TB) leukemia
[14] = test system: HOP-62 NSCLC
[15] = test system: HOP-92 NSCLC
[16] = test system: HS 578T breast
[17] = test system: HT29 colon
[18] = test system: IGROV1 ovarian
[19] = test system: K-562 leukemia
[20] = test system: KM12 colon
[21] = test system: LOX IMVI melanoma
[22] = test system: MALME-3M melanoma
[23] = test system: MCF7 breast
[24] = test system: MDA-MB-231 breast
[25] = test system: MDA-MB-435
[26] = test system: MOLT-4 leukemia
[27] = test system: NCI-H226 lung
[28] = test system: NCI-H23 lung
[29] = test system: NCI-H460 lung
[30] = test system: NCI-H522 lung
[31] = test system: NCI/ADR-RES ovarian
[32] = test system: OVCAR-3 ovarian
[33] = test system: OVCAR-4 ovarian
[34] = test system: OVCAR-5 ovarian
[35] = test system: OVCAR-8 ovarian
[36] = test system: PC-3 prostate
[37] = test system: RPMI-8226 leukemia
[38] = test system: RXF 393 renal
[39] = test system: SF-268 CNS
[40] = test system: SF-295 CNS
[41] = test system: SF-539 CNS
[42] = test system: SK-MEL-2 melanoma
[43] = test system: SK-MEL-28 melanoma
[44] = test system: SK-MEL-5 melanoma
[45] = test system: SK-OV-3 ovarian
[46] = test system: SN12C renal
[47] = test system: SNB-19 CNS
[48] = test system: SNB-75 CNS
[49] = test system: SR leukemia
[50] = test system: SW-620 colon
[51] = test system: T-47D breast
[52] = test system: TK-10 renal
[53] = test system: U251 CNS
[54] = test system: UACC-257 melanoma
[55] = test system: UACC-62 melanoma
[56] = test system: UO-31 renal

What does the source list for `CCc1ccc(CNCC(O)c2ccccc2)cc1` (configuration not stated)?
GI50 [1]: 20.1 µM; TGI [1]: 53.8 µM; GI50 [2]: 5.14 µM; TGI [2]: 47.2 µM; GI50 [3]: 39.2 µM; TGI [3]: > 100 µM; GI50 [4]: 31.4 µM; TGI [4]: > 100 µM; GI50 [5]: 8.3 µM; TGI [5]: > 100 µM; GI50 [6]: 25.4 µM; TGI [6]: > 100 µM; GI50 [7]: 34.5 µM; TGI [7]: > 100 µM; GI50 [8]: 16.6 µM; TGI [8]: 33 µM; GI50 [9]: 35.5 µM; TGI [9]: > 100 µM; GI50 [10]: 17.9 µM; TGI [10]: 36.8 µM; GI50 [11]: 28.4 µM; TGI [11]: > 100 µM; GI50 [12]: 17.3 µM; TGI [12]: 53 µM; GI50 [13]: 23.4 µM; TGI [13]: 68.6 µM; GI50 [14]: 37.1 µM; TGI [14]: > 100 µM; GI50 [15]: 6.14 µM; TGI [15]: 38.1 µM; GI50 [16]: 28.1 µM; TGI [16]: > 100 µM; GI50 [17]: 21.5 µM; TGI [17]: 68.4 µM; GI50 [18]: 47.8 µM; TGI [18]: > 100 µM; GI50 [19]: 7.85 µM; TGI [19]: 62.6 µM; GI50 [20]: 15 µM; TGI [20]: 32.1 µM; GI50 [21]: 16.4 µM; TGI [21]: 34 µM; GI50 [22]: 14.8 µM; TGI [22]: 31.2 µM; GI50 [23]: 15.5 µM; TGI [23]: 34.2 µM; GI50 [24]: 13.2 µM; TGI [24]: 35.7 µM; GI50 [25]: 6.93 µM; TGI [25]: 20.1 µM; GI50 [26]: 21.8 µM; TGI [26]: 54.5 µM; GI50 [27]: > 100 µM; TGI [27]: > 100 µM; GI50 [28]: 49.2 µM; TGI [28]: > 100 µM; GI50 [29]: 19.1 µM; TGI [29]: 42.8 µM; GI50 [30]: 24.7 µM; TGI [30]: 70.5 µM; GI50 [31]: 20.8 µM; TGI [31]: 71.2 µM; GI50 [32]: 25.2 µM; TGI [32]: 79.2 µM; GI50 [33]: 29.6 µM; TGI [33]: > 100 µM; GI50 [34]: 18.1 µM; TGI [34]: 44.2 µM; GI50 [35]: 26.5 µM; TGI [35]: > 100 µM; GI50 [36]: 34.8 µM; TGI [36]: > 100 µM; GI50 [37]: 22.7 µM; TGI [37]: 53.3 µM; GI50 [38]: 14.3 µM; TGI [38]: 45.5 µM; GI50 [39]: 33.6 µM; TGI [39]: > 100 µM; GI50 [40]: 16.5 µM; TGI [40]: 35.5 µM; GI50 [41]: 16.5 µM; TGI [41]: 39.5 µM; GI50 [42]: 17.2 µM; TGI [42]: 33.7 µM; GI50 [43]: 14.5 µM; TGI [43]: 28.7 µM; GI50 [44]: 15.7 µM; TGI [44]: 29.2 µM; GI50 [45]: 63 µM; TGI [45]: > 100 µM; GI50 [46]: 33.5 µM; TGI [46]: > 100 µM; GI50 [47]: 46.9 µM; TGI [47]: > 100 µM; GI50 [48]: 5.39 µM; TGI [48]: 42.2 µM; GI50 [49]: 13.5 µM; TGI [49]: 49.2 µM; GI50 [50]: 18.5 µM; TGI [50]: 42.9 µM; GI50 [51]: 20.2 µM; TGI [51]: 51.9 µM; GI50 [52]: 34.2 µM; TGI [52]: > 100 µM; GI50 [53]: 17.7 µM; TGI [53]: 43.1 µM; GI50 [54]: 16.2 µM; TGI [54]: 35.7 µM; GI50 [55]: 16.5 µM; TGI [55]: 32.4 µM; GI50 [56]: 18.9 µM; TGI [56]: > 100 µM
